Each structure is given as a SMILES string. Like-named read-outs stand apart in the source and are kept apart here. Some results are limits rather than exact numbers.

What all share (format): cell-based, human
Experiment [1] deals with KRAS G12C mutant NCI-H358 cells. As to the kind of experiment: Cell proliferation inhibition experiment, 3D spheroid, CellTiter-Glo, NCI-H358. The settings on record: NCI-H358 (KRAS G12C mutant) 3D spheroid, 5 days with compound, CellTiter-Glo, read-out: H358 IC50. In short, it runs like this: (§1)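 First, H358 (800/well) or A549 (400/well) cells are plated in 2% FBS medium and left overnight to form spheroids. Next, compound is added as a 3.16-fold gradient at 0.1% DMSO for 5 days. Finally, CellTiter-Glo signal is read and IC50 derived by four-parameter fitting.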

Experiment [2] deals with A549 cells (KRAS G12S mutant). As to the kind of experiment: Cell proliferation inhibition experiment, 3D spheroid, CellTiter-Glo, A549. Conditions: A549 (KRAS G12S mutant) 3D spheroid, 5 days with compound, CellTiter-Glo, read-out: A549 IC50. In short, it runs like this:
as §1
For orientation: ATP-based viability assays read luminescence as a measure of living cells.

Experiment [3] has as its system KRAS G12C mutant MIA PaCa-2 cells. The experiment in a line: Cell proliferation inhibition experiment, 3D spheroid, CellTiter-Glo, MIA PaCa-2. Conditions: 3D cell model in 384-well spheroid plate, 5 days, CellTiter-Glo, read-out: MIA-PaCa2 IC50. In short, it runs like this: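 Luminescent ATP read-out (CellTiter-Glo) after 5-day compound treatment of spheroids formed overnight from 200 MIA PaCa-2 cells/well; compounds in 3.16-fold series, 0.1% DMSO final. IC50 derived by four-parameter fit of percent inhibition, normalized to DMSO control and medium blank.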

[4] abbreviates: Homo sapiens, MIA PaCa-2, 120 h.

`C=CC(=O)N1CCN2C(=O)c3c(Oc4cccc5c4OC(C)(C)C5)nc(-c4c(O)cccc4F)c(Cl)c3OC[C@H]2C1` [Z42, (6aR)-8-acryloyl-4-chloro-1-((2,2-dimethyl-2,3-dihydrobenzofuran-7-yl)oxy)-3-(2-fluoro-6-hydroxyphenyl)-6,6a,7,8,9,10-hexahydro-12H-pyrazino[2,1-c]pyrido[3,4-f][1,4]oxazepin-12-one]: the IC50 in experiment [1] (Homo sapiens, NCI-H358, 120 h) was 37 nM; in experiment [2] (Homo sapiens, A549, 120 h), 6290 nM; in experiment [3] (setting [4]), 87 nM.

With `C=CC(=O)N1CCN2C(=O)c3c(N4CCN(C)CC4)nc(-c4c(O)cccc4F)c(Cl)c3OC[C@H]2C1` [Z30, (6aR)-8-acryloyl-4-chloro-3-(2-fluoro-6-hydroxyphenyl)-1-(4-methylpiperazin-1-yl)-6,6a,7,8,9,10-hexahydro-12H-pyrazino[2,1-c]pyrido[3,4-f][1,4]oxazepin-12-one], the IC50 in experiment [1] (Homo sapiens, NCI-H358, 120 h) is 40 nM; in experiment [2] (Homo sapiens, A549, 120 h), over 20000 nM; in experiment [3] (setting [4]) it was 41 nM.

As to `C=CC(=O)N1CCN2C(=O)c3c(N4CCC5(CC5)C4)nc(-c4c(O)cccc4F)c(Cl)c3OC[C@H]2C1` [Z44, (6aR)-8-acryloyl-4-chloro-3-(2-fluoro-6-hydroxyphenyl)-1-(5-azaspiro[2.4]heptan-5-yl)-6,6a,7,8,9,10-hexahydro-12H-pyrazino[2,1-c]pyrido[3,4-f][1,4]oxazepin-12-one], the IC50 in experiment [1] (Homo sapiens, NCI-H358, 120 h) is 26 nM; in experiment [2] (Homo sapiens, A549, 120 h), over 5000 nM; in experiment [3] (setting [4]), 51 nM.

Regarding `C=CC(=O)N1CCN2C(=O)c3c(-c4ccccc4)nc(-c4c(O)cccc4F)c(Cl)c3OC[C@H]2C1` [Z53, (6aR)-8-acryloyl-4-chloro-3-(2-fluoro-6-hydroxyphenyl)-1-phenyl-6,6a,7,8,9,10-hexahydro-12H-pyrazino[2,1-c]pyrido[3,4-f]oxazepin-12-one], the IC50 in experiment [1] was 146 nM; in experiment [2] it was over 30000 nM; in experiment [3], 292 nM.

Consider `C=CC(=O)N1CCN2C(=O)c3c(Nc4c(C)ccnc4C(C)C)nc(-c4c(O)cccc4F)c(F)c3OC[C@H]2C1` [Z9, (6aR)-8-acryloyl-4-fluoro-3-(2-fluoro-6-hydroxyphenyl)-1-((2-isopropyl-4-methylpyridin-3-yl)amino)-6,6a,7,8,9,10-hexahydro-12H-pyrazino[2,1-c]pyrido[3,4-f][1,4]oxazepin-12-one], for which the IC50 was 23 nM in experiment [1] (Homo sapiens, NCI-H358, 120 h); 11300 nM in experiment [2] (Homo sapiens, A549, 120 h); 95 nM in experiment [3] (setting [4]).

Take `C=CC(=O)N1CCN2C(=O)c3c(N4CCN(C)CC45CC5)nc(-c4c(O)cccc4F)c(Cl)c3OC[C@H]2C1` [Z57, (6aR)-8-acryloyl-4-chloro-3-(2-fluoro-6-hydroxyphenyl)-1-(7-methyl-4,7-diazaspiro[2.5]octan-4-yl)-6,6a,7,8,9,10-hexahydro-12H-pyrazino[2,1-c]pyrido[3,4-f][1,4]oxazepin-12-one]: the IC50 was 134 nM in experiment [1] (Homo sapiens, NCI-H358, 120 h); over 30000 nM in experiment [2] (Homo sapiens, A549, 120 h); 118 nM in experiment [3] (setting [4]).

With `C=CC(=O)N1CCN2C(=O)c3c(N4[C@@H]5CC[C@H]4COC5)nc(-c4c(O)cccc4F)c(Cl)c3OC[C@H]2C1` [Z38, (6aR)-8-acryloyl-1-((1R,5S)-3-oxa-8-azabicyclo[3.2.1]octan-8-yl)-4-chloro-3-(2-fluoro-6-hydroxyphenyl)-6,6a,7,8,9,10-hexahydro-12H-pyrazino[2,1-c]pyrido[3,4-f][1,4]oxazepin-12-one], the IC50 was 55 nM in experiment [1] (Homo sapiens, NCI-H358, 120 h); over 10000 nM in experiment [2] (Homo sapiens, A549, 120 h); 88 nM in experiment [3] (setting [4]).

For the compound `C=CC(=O)N1CCN2C(=O)c3c(-c4ccncc4)nc(-c4c(O)cccc4F)c(Cl)c3OC[C@H]2C1` [Z54], the IC50 in experiment [1] (Homo sapiens, NCI-H358, 120 h) was 124 nM; in experiment [2] (Homo sapiens, A549, 120 h), over 30000 nM; in experiment [3] (setting [4]), 169 nM.

For `C=CC(=O)N1CCN2C(=O)c3c(N4CCOCC4(C)C)nc(-c4c(O)cccc4F)c(Cl)c3OC[C@H]2C1` [Z70, (6aR)-8-acryloyl-4-chloro-1-(3,3-dimethylmorpholino)-3-(2-fluoro-6-hydroxyphenyl)-6,6a,7,8,9,10-hexahydro-12H-pyrazino[2,1-c]pyrido[3,4-f][1,4]oxazepin-12-one], the IC50 in experiment [1] (Homo sapiens, NCI-H358, 120 h) was 25 nM; in experiment [2] (Homo sapiens, A549, 120 h), over 10000 nM; in experiment [3] (setting [4]), 52 nM.

On to `C=CC(=O)N1CCN2C(=O)c3c(Nc4c(C)ccnc4C(C)C)nc(-c4ccccc4F)c(Cl)c3OC[C@H]2C1` [Z8, (R)-8-acryloyl-4-chloro-3-(2-fluorophenyl)-1-((2-isopropyl-4-methylpyridin-3-yl)amino)-6,6a,7,8,9,10-hexahydro-12H-pyrazino[2,1-c]pyrido[3,4-f][1,4]oxazepin-12-one], for which the IC50 in experiment [1] (Homo sapiens, NCI-H358, 120 h) stood at 51 nM; in experiment [2] (Homo sapiens, A549, 120 h) it was 5090 nM; in experiment [3] (setting [4]) it was 232 nM.

With `C=CC(=O)N1CCN2C(=O)c3c(N4CCCC45CCOC5)nc(-c4c(O)cccc4F)c(Cl)c3OC[C@H]2C1` (stereo partly drawn) [Z58, (6aR)-8-acryloyl-4-chloro-3-(2-fluoro-6-hydroxyphenyl)-1-(7-oxa-1-azaspiro[4.4]nonan-1-yl)-6,6a,7,8,9,10-hexahydro-12H-pyrazino[2,1-c]pyrido[3,4-f][1,4]oxazepin-12-one], the IC50 in experiment [1] (Homo sapiens, NCI-H358, 120 h) is 145 nM; in experiment [2] (Homo sapiens, A549, 120 h), over 5000 nM; in experiment [3] (setting [4]), 237 nM.

Turning to `C=CC(=O)N1CCN2C(=O)c3c(N4CCSCC4)nc(-c4c(O)cccc4F)c(Cl)c3OC[C@H]2C1` [Z264, (6aR)-8-acryloyl-4-chloro-3-(2-fluoro-6-hydroxyphenyl)-1-thiomorpholino-6,6a,7,8,9,10-hexahydro-12H-pyrazino[2,1-c]pyrido[3,4-f][1,4]oxazepin-12-one], the IC50 is 85 nM in experiment [1] (Homo sapiens, NCI-H358, 120 h); 9480 nM in experiment [2] (Homo sapiens, A549, 120 h); 98 nM in experiment [3] (setting [4]).

Turning to `C=CC(=O)N1CCN2C(=O)c3c(N4CCC5(CCOC5)C4)nc(-c4c(O)cccc4F)c(Cl)c3OC[C@H]2C1` (stereo partly drawn) [Z59, (6aR)-8-acryloyl-4-chloro-3-(2-fluoro-6-hydroxyphenyl)-1-(2-oxa-7-azaspiro[4.4]nonan-7-yl)-6,6a,7,8,9,10-hexahydro-12H-pyrazino[2,1-c]pyrido[3,4-f][1,4]oxazepin-12-(6aH)-one], the IC50 was 19 nM in experiment [1], over 30000 nM in experiment [2] and 27 nM in experiment [3].

In the case of `C=CC(=O)N1CCN2C(=O)c3c(N4CCO[C@H](C)C4)nc(-c4c(O)cccc4F)c(Cl)c3OC[C@H]2C1` [Z24, (6aR)-8-acryloyl-4-chloro-3-(2-fluoro-6-hydroxyphenyl)-1-((R)-2-methylmorpholino)-6,6a,7,8,9,10-hexahydro-12H-pyrazino[2,1-c]pyrido[3,4-f][1,4]oxazepin-12-one], the IC50 was 26 nM in experiment [1] (Homo sapiens, NCI-H358, 120 h); over 5000 nM in experiment [2] (Homo sapiens, A549, 120 h); 36 nM in experiment [3] (setting [4]).

A word on the IC50: it is the concentration needed to halve the response being measured.
